Legend:
Assay in all cases: biochemical
Conditions in all cases: read-out: % inhibition mean (Z'Lyte)
AKT3 (PKB gamma) = AKT3 (PKB gamma) (Homo sapiens, UniProt Q9Y243)
AMPK (A2/B2/G3) = AMPK (A2/B2/G3) (Homo sapiens, UniProt P54646)
AMPK A2/B1/G1 = AMPK A2/B1/G1 (Homo sapiens, UniProt P54646)
CAMK1D (CaMKI delta) = CAMK1D (CaMKI delta) (Homo sapiens, UniProt Q8IU85)
CAMK2D (CaMKII delta) = CAMK2D (CaMKII delta) (Homo sapiens, UniProt Q13557)
EGFR (ErbB1) G719C = EGFR (ErbB1) G719C (Homo sapiens, UniProt P00533, G719C)
Chain of EGFR (ErbB1) G719C (P00533 whole entry G719C): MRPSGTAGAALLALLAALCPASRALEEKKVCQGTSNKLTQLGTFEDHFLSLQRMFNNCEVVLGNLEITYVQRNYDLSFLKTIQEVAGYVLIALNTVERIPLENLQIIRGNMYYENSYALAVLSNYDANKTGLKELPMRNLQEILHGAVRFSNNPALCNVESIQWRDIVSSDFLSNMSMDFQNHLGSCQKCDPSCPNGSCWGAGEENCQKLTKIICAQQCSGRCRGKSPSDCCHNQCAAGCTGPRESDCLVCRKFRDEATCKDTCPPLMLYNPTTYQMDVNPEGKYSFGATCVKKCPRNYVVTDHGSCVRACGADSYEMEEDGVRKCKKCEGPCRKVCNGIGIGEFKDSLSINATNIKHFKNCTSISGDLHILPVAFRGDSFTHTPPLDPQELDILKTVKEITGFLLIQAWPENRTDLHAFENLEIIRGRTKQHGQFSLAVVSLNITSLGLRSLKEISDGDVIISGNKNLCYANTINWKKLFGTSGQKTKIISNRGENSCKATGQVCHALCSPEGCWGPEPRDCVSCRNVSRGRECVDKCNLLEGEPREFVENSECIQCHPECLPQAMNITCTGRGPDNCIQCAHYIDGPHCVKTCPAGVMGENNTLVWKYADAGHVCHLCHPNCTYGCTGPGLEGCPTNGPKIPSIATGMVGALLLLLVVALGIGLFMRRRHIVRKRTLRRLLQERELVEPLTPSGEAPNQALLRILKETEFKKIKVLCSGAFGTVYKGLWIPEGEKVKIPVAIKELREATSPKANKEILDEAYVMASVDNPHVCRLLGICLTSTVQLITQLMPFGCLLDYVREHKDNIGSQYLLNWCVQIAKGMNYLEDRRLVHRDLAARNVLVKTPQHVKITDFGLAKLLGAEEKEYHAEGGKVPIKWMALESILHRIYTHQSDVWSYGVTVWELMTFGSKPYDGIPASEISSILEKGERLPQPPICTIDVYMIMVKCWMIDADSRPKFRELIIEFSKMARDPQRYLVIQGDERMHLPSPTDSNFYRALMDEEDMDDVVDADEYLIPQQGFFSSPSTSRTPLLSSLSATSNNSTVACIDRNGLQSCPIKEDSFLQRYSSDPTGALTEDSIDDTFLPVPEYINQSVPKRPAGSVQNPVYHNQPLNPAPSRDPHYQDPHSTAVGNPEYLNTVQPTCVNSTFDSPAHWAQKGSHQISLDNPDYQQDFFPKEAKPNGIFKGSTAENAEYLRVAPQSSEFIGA

EGFR (ErbB1) L861Q = EGFR (ErbB1) L861Q (Homo sapiens, UniProt P00533, L861Q)
EPHA4 = EPHA4 (Homo sapiens, UniProt P54764)
Chain of EPHA4 (P54764 whole entry): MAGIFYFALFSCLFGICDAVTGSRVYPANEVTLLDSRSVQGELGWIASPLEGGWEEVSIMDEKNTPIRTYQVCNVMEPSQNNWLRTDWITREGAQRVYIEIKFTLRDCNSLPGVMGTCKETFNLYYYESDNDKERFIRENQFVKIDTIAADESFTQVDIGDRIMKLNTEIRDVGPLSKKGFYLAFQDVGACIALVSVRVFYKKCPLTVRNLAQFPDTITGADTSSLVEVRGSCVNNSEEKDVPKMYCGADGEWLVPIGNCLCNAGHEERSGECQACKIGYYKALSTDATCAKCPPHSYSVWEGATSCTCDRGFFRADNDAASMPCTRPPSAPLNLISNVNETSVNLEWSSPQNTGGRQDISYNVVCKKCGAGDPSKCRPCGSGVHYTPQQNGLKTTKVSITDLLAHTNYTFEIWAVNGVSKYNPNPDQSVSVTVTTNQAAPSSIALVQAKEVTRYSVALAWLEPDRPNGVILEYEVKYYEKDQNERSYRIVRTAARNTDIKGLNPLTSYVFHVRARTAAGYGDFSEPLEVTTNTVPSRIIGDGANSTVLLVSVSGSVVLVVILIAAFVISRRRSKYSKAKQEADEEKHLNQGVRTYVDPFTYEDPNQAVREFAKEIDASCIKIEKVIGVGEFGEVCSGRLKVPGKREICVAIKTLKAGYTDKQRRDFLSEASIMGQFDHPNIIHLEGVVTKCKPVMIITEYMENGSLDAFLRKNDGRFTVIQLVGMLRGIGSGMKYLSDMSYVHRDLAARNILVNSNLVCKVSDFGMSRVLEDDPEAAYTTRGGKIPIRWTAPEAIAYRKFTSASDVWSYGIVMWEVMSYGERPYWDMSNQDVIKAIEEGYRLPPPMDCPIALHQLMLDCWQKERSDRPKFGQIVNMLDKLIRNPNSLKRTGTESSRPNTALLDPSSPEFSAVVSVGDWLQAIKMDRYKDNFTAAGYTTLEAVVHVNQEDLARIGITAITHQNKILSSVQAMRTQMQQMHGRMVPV

EPHB3 = EPHB3 (Homo sapiens, UniProt P54753)
Chain of EPHB3 (P54753 whole entry): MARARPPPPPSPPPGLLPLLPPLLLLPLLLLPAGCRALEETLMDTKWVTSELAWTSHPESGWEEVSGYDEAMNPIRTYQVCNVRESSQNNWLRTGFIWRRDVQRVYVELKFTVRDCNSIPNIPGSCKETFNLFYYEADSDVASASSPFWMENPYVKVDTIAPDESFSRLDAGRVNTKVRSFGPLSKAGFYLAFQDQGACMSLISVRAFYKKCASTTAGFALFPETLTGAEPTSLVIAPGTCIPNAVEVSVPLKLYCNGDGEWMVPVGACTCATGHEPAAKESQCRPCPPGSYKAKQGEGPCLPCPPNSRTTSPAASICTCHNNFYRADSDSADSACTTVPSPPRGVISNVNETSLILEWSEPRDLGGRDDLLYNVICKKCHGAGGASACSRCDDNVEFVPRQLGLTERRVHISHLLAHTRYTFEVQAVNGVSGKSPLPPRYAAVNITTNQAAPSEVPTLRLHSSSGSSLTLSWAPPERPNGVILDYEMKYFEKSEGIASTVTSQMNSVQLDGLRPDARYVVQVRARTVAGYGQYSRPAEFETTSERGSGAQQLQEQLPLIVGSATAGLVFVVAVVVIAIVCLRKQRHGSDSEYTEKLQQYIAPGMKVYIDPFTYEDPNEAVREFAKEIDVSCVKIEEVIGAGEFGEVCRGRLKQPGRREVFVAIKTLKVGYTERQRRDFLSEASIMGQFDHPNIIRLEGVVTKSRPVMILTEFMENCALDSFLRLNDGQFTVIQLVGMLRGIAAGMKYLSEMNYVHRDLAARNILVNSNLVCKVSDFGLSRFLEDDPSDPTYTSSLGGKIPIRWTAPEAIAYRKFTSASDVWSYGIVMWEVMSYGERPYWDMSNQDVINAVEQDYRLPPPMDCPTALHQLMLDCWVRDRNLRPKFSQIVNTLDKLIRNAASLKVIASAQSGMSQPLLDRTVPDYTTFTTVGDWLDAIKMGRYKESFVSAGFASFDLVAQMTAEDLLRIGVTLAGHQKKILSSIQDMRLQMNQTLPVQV

EPHB4 = EPHB4 (Homo sapiens, UniProt P54760)
FGFR3 V555M = FGFR3 V555M (Homo sapiens, UniProt P22607, V555M)
HIPK2 = HIPK2 (Homo sapiens, UniProt Q9H2X6)
KDR (VEGFR2) = KDR (VEGFR2) (Homo sapiens, UniProt P35968)
MAP4K2 (GCK) = MAP4K2 (GCK) (Homo sapiens, UniProt Q12851)
Chain of MAP4K2 (GCK) (Q12851 whole entry): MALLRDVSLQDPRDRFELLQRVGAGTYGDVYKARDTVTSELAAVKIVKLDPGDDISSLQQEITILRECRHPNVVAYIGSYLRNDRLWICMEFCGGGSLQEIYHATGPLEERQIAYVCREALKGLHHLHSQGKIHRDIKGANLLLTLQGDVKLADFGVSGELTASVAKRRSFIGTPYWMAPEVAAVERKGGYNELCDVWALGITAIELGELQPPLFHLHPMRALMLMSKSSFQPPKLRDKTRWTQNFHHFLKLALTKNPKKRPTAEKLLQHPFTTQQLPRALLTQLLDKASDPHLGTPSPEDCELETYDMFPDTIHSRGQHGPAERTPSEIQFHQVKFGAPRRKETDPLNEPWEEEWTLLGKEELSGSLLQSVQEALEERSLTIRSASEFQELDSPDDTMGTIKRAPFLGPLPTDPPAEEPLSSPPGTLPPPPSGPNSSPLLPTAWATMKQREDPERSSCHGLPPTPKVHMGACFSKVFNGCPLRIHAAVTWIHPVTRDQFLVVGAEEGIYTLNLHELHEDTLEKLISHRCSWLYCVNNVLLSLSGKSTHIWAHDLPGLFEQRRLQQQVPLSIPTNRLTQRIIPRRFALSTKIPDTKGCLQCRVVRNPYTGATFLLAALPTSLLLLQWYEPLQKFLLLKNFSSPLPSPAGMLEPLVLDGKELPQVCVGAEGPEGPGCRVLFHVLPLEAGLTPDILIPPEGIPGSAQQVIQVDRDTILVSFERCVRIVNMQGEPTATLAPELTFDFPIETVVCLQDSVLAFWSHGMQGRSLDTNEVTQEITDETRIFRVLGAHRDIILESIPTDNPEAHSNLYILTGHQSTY

MAP4K5 (KHS1) = MAP4K5 (KHS1) (Homo sapiens, UniProt Q9Y4K4)
MAPK14 (p38 alpha) = MAPK14 (p38 alpha) (Homo sapiens, UniProt Q16539)
[1] = target: MAPK14 (p38 alpha) Direct (Homo sapiens, UniProt Q16539)
MAPKAPK5 (PRAK) = MAPKAPK5 (PRAK) (Homo sapiens, UniProt Q8IW41)
MARK1 (MARK) = MARK1 (MARK) (Homo sapiens, UniProt Q9P0L2)
NEK1 = NEK1 (Homo sapiens, UniProt Q96PY6)
PDGFRA V561D = PDGFRA V561D (Homo sapiens, UniProt P16234, V561D)
PHKG1 = PHKG1 (Homo sapiens, UniProt Q16816)
PHKG2 = PHKG2 (Homo sapiens, UniProt P15735)
PLK1 = PLK1 (Homo sapiens, UniProt P53350)
RPS6KA2 (RSK3) = RPS6KA2 (RSK3) (Homo sapiens, UniProt Q15349)
RPS6KB1 (p70S6K) = RPS6KB1 (p70S6K) (Homo sapiens, UniProt P23443)
Chain of RPS6KB1 (p70S6K) (P23443 whole entry): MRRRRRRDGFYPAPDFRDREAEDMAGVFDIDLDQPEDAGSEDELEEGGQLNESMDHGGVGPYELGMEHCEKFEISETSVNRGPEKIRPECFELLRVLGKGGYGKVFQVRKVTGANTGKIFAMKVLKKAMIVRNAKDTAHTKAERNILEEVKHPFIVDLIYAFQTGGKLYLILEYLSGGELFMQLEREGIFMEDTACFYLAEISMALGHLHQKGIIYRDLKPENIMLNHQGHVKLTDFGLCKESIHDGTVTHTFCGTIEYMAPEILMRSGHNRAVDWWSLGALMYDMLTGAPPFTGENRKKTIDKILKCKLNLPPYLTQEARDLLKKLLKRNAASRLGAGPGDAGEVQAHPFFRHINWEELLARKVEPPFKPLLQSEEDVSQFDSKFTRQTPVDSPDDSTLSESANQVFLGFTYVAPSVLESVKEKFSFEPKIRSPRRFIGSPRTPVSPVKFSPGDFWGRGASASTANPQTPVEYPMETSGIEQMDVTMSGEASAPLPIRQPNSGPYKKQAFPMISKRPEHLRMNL

SRPK1 = SRPK1 (Homo sapiens, UniProt Q96SB4)
SYK = SYK (Homo sapiens, UniProt P43405)

Chain of CAMK2D (CaMKII delta) (Q13557 whole entry): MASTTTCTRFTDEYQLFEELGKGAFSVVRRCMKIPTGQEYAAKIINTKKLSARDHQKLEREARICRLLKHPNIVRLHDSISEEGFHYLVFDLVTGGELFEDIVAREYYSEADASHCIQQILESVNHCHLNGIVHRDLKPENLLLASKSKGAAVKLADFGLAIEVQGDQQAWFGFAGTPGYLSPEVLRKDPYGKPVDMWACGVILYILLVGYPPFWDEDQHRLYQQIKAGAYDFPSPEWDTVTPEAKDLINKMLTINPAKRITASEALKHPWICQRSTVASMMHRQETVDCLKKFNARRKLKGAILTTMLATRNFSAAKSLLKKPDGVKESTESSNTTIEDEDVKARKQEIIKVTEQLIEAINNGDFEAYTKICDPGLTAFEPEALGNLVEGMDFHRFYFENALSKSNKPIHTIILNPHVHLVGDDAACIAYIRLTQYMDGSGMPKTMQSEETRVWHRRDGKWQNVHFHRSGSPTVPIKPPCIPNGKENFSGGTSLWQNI

SMILES: COc1ccc2nc3cc(Cl)ccc3c(Nc3cc(CN4CCCC4)c(O)c(CN4CCCC4)c3)c2n1 [Pyronaridine, 4-[(7-Chloro-2-methoxybenzo[b][1,5]naphthyridin-10-yl)amino]-2,6-bis(1-pyrrolidinylmethyl)phenol phosphate (1:4)]
- inhibition at 1 µM (AKT3 (PKB gamma)): 7%
- inhibition at 1 µM (AMPK (A2/B2/G3)): 2%
- inhibition at 1 µM (AMPK A2/B1/G1): 2%
- inhibition at 1 µM (CAMK1D (CaMKI delta)): -26%
- inhibition at 1 µM (CAMK2D (CaMKII delta)): -5%
- inhibition at 1 µM (EGFR (ErbB1) G719C): -4%
- inhibition at 1 µM (EGFR (ErbB1) L861Q): -4%
- inhibition at 1 µM (EPHA4): -2%
- inhibition at 1 µM (EPHB3): -1%
- inhibition at 1 µM (EPHB4): 7%
- inhibition at 1 µM (FGFR3 V555M): -1%
- inhibition at 1 µM (HIPK2): -1%
- inhibition at 1 µM (KDR (VEGFR2)): 7%
- inhibition at 1 µM (MAP4K2 (GCK)): 5%
- inhibition at 1 µM (MAP4K5 (KHS1)): 5%
- inhibition at 1 µM (MAPK14 (p38 alpha)): 1%
- inhibition at 1 µM [1]: 3%
- inhibition at 1 µM (MAPKAPK5 (PRAK)): 3%
- inhibition at 1 µM (MARK1 (MARK)): -10%
- inhibition at 1 µM (NEK1): -1%
- inhibition at 1 µM (PDGFRA V561D): 2%
- inhibition at 1 µM (PHKG1): -1%
- inhibition at 1 µM (PHKG2): -2%
- inhibition at 1 µM (PLK1): 6%
- inhibition at 1 µM (RPS6KA2 (RSK3)): 0%
- inhibition at 1 µM (RPS6KB1 (p70S6K)): 3%
- inhibition at 1 µM (SRPK1): 1%
- inhibition at 1 µM (SYK): 1%
